Measured values from patent US4112105A, “Anti-inflammatory 3-(substituted-amino)-2,1-benzisothiazoles” (Sterling Drug Inc., priority 1977, dated 1978).
Structures can show the parent of a compound that is named as a salt.

What was measured:
[1] = anti-inflammatory activity (test not given); conditions: in vivo
Method: (§1) Anti-inflammatory activity was determined using (1) the inhibition of carrageenin-induced foot edema test essentially described by Van Arman et al., J. Pharmocol. Exptl. Therap. 150, 328 (1965) as a modification of the procedure of Winter et al., Proc. Soc. Exp. Biol. and Med. 111, 544 (1962) and (2) a modification of the inhibition of adjuvant-induced arthritis test described by Pearson, J. Chronic Diseases 16, 863 (1963) and Glenn et al., Am. J. Vet. Res. 26, 1180 (1965).

[2] = inhibition of carrageenin-induced foot edema test; type: in vivo; conditions: for inhibition in vivo at 324 µmol/kg: 0.324 mMole/kg; for inhibition in vivo at 80 µmol/kg: 0.08 mMole/kg; for side effects (footnote e): 4 hours post medication
Method: as §1
Representative examples of the compounds of this invention have been tested in the carrageenin edema and adjuvant arthritis tests as described hereinabove and found to have anti-inflammatory activity. Test data, given as percent inhibition at a dose expressed in millimoles (mMole/kg) are presented hereinbelow. All test compounds were administered orally.
The data for a number of examples are presented in several separate groups each representing the test results wherein anti-inflammatory activity was measured at one or more dose levels against a single set of controls.

[3] = inhibition of adjuvant-induced arthritis test; type: in vivo; conditions: for inhibition in vivo at 120 µmol/kg: 0.12 mMole/kg
Method: Anti-inflammatory activity was determined using (1) the inhibition of carrageenin-induced foot edema test essentially described by Van Arman et al., J. Pharmocol. Exptl. Therap. […] J. Vet.
All test compounds were administered orally.

[4] = acute oral toxicity, standard toxicological test procedures; conditions: in vivo; for LD50 at 168 h: acute oral, read-out: 7-day LD50
Method: Acute oral toxicity was determined for Examples 1E and (g) employing standard toxicological test procedures.

Structure (SMILES): CCN(CC)CCCC(C)Nc1snc2ccccc12 (stereo not drawn) [3-[4-(diethylamino)-1-methylbutylamino]-2,1-benzisothiazole]
- anti-inflammatory activity (in words) [1]: useful anti-inflammatory activity

Structure (SMILES): CCN(CC)CCCC(C)Nc1snc2ccccc12 (stereo not drawn) [(g), 3-[4-(diethylamino)-1-methylbutylamino]-2,1-benzisothiazole diphosphate, reference compound]
- inhibition in vivo at 20 µmol/kg ([2]; po, 0.02 mMole/kg): 0%
- inhibition in vivo at 30 µmol/kg ([3]; po, 0.03 mMole/kg): 0%
- inhibition in vivo at 60 µmol/kg ([3]; po, 0.06 mMole/kg): 1%
- inhibition in vivo at 120 µmol/kg ([3]; po): 4%
- inhibition in vivo at 240 µmol/kg ([3]; po, 0.24 mMole/kg): 0%
- LD50 at 168 h [4]: 1730 mg/kg

Structure (SMILES): CCN(CC)CCCC(C)NC(=O)c1ccc(Cl)cc1[N+](=O)[O-] (stereo not drawn) [Example 1B, 4-chloro-N-[4-(diethylamino)-1-methylbutyl]-2-nitrobenzamide]
- inhibition in vivo at 324 µmol/kg ([2]; po): 29%
- inhibition in vivo at 324 µmol/kg ([3]; po, 0.324 mMole/kg): 16%

Structure (SMILES): CCN(CC)CCCC(C)NC(=S)c1ccc(Cl)cc1[N+](=O)[O-].Cl (stereo not drawn) [Example 1C, 4-chloro-N-[4-(diethylamino)-1-methylbutyl]-2-nitrothiobenzamide hydrochloride]
- inhibition in vivo at 324 µmol/kg ([2]; po): 38%
- side effects (footnote b) ([3]; oral, 0.324 mMole/kg): loss of hair, yellow urine
- inhibition in vivo at 324 µmol/kg ([3]; po, 0.324 mMole/kg): 60%

Structure (SMILES): CCN(CC)CCCC(C)Nc1snc2cc(Cl)ccc12 (stereo not drawn) [Example 1D, 6-chloro-3-[4-(diethylamino)-1-methylbutylamino]-2,1-benzisothiazole]
- anti-inflammatory activity in carrageenin edema assay (in words) ([2]; in vivo): high degree of anti-inflammatory activity
- Carrageenin edema % inhibition ([2]; oral, 0.03 mMole/kg): 19%
- inhibition in vivo at 90 µmol/kg ([2]; po, 0.09 mMole/kg): 14%
- inhibition in vivo at 270 µmol/kg ([2]; po, 0.27 mMole/kg): 29%
- anti-inflammatory activity in adjuvant arthritis assay (in words) ([3]; in vivo): high degree of anti-inflammatory activity
- inhibition in vivo at 120 µmol/kg ([3]; po): 65%
- toxicity (in words) [4]: low toxicity

Structure (SMILES): CCN(CC)CCCC(C)Nc1snc2cc(Cl)ccc12 (stereo not drawn) [Example 1E, 6-chloro-3-[4-(diethylamino)-1-methylbutylamino]-2,1-benzisothiazole diphosphate]
- Carrageenin edema % inhibition ([2]; oral, 0.03 mMole/kg): 4%
- Carrageenin edema % inhibition ([2]; oral, 0.09 mMole/kg): 25%
- Carrageenin edema % inhibition ([2]; oral, 0.27 mMole/kg): 39%
- side effects (footnote c) ([2]; oral, 0.64 mMole/kg): hypothermia
- inhibition in vivo at 640 µmol/kg ([2]; po, 0.64 mMole/kg): 60%
- toxicity in adjuvant arthritis test ([3]; oral, 0.24 mMole/kg): toxic
- LD50 at 168 h [4]: 1430 mg/kg

Structure (SMILES): CCN(CC)CCCC(C)N(C)c1snc2cc(Cl)ccc12 (stereo not drawn) [Example 2C, 6-chloro-3-{[4-(diethylamino)-1-methylbutyl]methylamino}-2,1-benzisothiazole]
- inhibition in vivo at 324 µmol/kg ([2]; po): 71%
- toxicity in adjuvant arthritis test ([3]; oral, 0.324 mMole/kg): Toxic
- inhibition in vivo at 72 µmol/kg ([3]; po, 0.072 mMole/kg): 0%

Structure (SMILES): Clc1ccc2c(NCCN3CCCC3)snc2c1 [Example 3C, 6-chloro-3-{[2-(1-pyrrolidinyl)-ethyl]amino}-2,1-benzisothiazole]
- inhibition in vivo at 30 µmol/kg ([2]; po, 0.03 mMole/kg): 15%
- inhibition in vivo at 90 µmol/kg ([2]; po, 0.09 mMole/kg): 12%
- inhibition in vivo at 270 µmol/kg ([2]; po, 0.27 mMole/kg): 32%
- inhibition in vivo at 320 µmol/kg ([2]; po, 0.32 mMole/kg): 29%
- inhibition in vivo at 640 µmol/kg ([2]; po, 0.64 mMole/kg): 52%
- inhibition in vivo at 324 µmol/kg ([3]; po, 0.324 mMole/kg): 14%

Structure (SMILES): CN1CCN(C(=S)c2ccc(Cl)cc2[N+](=O)[O-])CC1 [Example 4B, 1-(4-chloro-2-nitrothiobenzoyl)-4-methylpiperazine]
- inhibition in vivo at 324 µmol/kg ([2]; po): 28%
- inhibition in vivo at 324 µmol/kg ([3]; po, 0.324 mMole/kg): 0%

Structure (SMILES): CN1CCN(c2snc3cc(Cl)ccc23)CC1 [Example 4C, 6-chloro-3-(4-methyl-1-piperazinyl)-2,1-benzisothiazole]
- inhibition in vivo at 324 µmol/kg ([2]; po): 41%
- inhibition in vivo at 324 µmol/kg ([3]; po, 0.324 mMole/kg): 10%

Structure (SMILES): CN(C)CCNC(=S)c1ccc(Cl)cc1[N+](=O)[O-] [Example 5B, 4-chloro-N-[2-(dimethylamino)ethyl]-2-nitrothiobenzamide hydrochloride]
- inhibition in vivo at 324 µmol/kg ([2]; po): 43%
- inhibition in vivo at 324 µmol/kg ([3]; po, 0.324 mMole/kg): 2%

Structure (SMILES): CN(C)CCNc1snc2cc(Cl)ccc12 [Example 5C]
- inhibition in vivo at 30 µmol/kg ([2]; po, 0.03 mMole/kg): 19%
- inhibition in vivo at 90 µmol/kg ([2]; po, 0.09 mMole/kg): 14%
- inhibition in vivo at 270 µmol/kg ([2]; po, 0.27 mMole/kg): 29%
- inhibition in vivo at 324 µmol/kg ([2]; po): 28%
- inhibition in vivo at 324 µmol/kg ([3]; po, 0.324 mMole/kg): 0%

Structure (SMILES): CN(C)CCCNC(=S)c1ccc(Cl)cc1[N+](=O)[O-] [Example 6B, 4-chloro-N-[3-(dimethylamino)propyl]-2-nitrothiobenzamide hydrochloride]
- inhibition in vivo at 324 µmol/kg ([2]; po): 39%
- inhibition in vivo at 324 µmol/kg ([3]; po, 0.324 mMole/kg): 8%

Structure (SMILES): CN(C)CCCNc1snc2cc(Cl)ccc12 [Example 6C, 6-chloro-3-{[3-(dimethylamino)propyl]amino}-2,1-benzisothiazole dihydrochloride]
- inhibition in vivo at 30 µmol/kg ([2]; po, 0.03 mMole/kg): 0%
- inhibition in vivo at 90 µmol/kg ([2]; po, 0.09 mMole/kg): 24%
- inhibition in vivo at 270 µmol/kg ([2]; po, 0.27 mMole/kg): 41%
- inhibition in vivo at 324 µmol/kg ([2]; po): 35%
- inhibition in vivo at 324 µmol/kg ([3]; po, 0.324 mMole/kg): 0%

Structure (SMILES): CN(C)CCCCNC(=S)c1ccc(Cl)cc1[N+](=O)[O-] [Example 7B, 4-chloro-N-[4-(dimethylamino)butyl]-2-nitrothiobenzamide]
- side effects (footnote d) ([2]; oral, 1.11 mMole/kg): salivation
- inhibition in vivo at 1110 µmol/kg ([2]; po, 1.11 mMole/kg): 63%
- inhibition in vivo at 800 µmol/kg ([3]; po, 0.80 mMole/kg): 15%

Structure (SMILES): CN(C)CCCCNc1snc2cc(Cl)ccc12 [Example 7C, 6-chloro-3-{[4-(dimethylamino)butyl]amino}-2,1-benzisothiazole]
- inhibition in vivo at 30 µmol/kg ([2]; po, 0.03 mMole/kg): 0%
- inhibition in vivo at 90 µmol/kg ([2]; po, 0.09 mMole/kg): 9%
- inhibition in vivo at 270 µmol/kg ([2]; po, 0.27 mMole/kg): 32%
- inhibition in vivo at 324 µmol/kg ([3]; po, 0.324 mMole/kg): 25%

Structure (SMILES): CN1CCN(c2snc3ccc(Cl)cc23)CC1 [Example 8, 5-chloro-3-(4-methyl-1-piperazinyl)-2,1-benzisothiazole]
- inhibition in vivo at 80 µmol/kg ([2]; po): 15%
- inhibition in vivo at 324 µmol/kg ([2]; po): 51%
- inhibition in vivo at 324 µmol/kg ([3]; po, 0.324 mMole/kg): 0%

Structure (SMILES): CN(C)CCNc1snc2ccc(Cl)cc12 [Example 9]
- inhibition in vivo at 80 µmol/kg ([2]; po): 8%
- inhibition in vivo at 320 µmol/kg ([2]; po, 0.32 mMole/kg): 0%
- inhibition in vivo at 324 µmol/kg ([2]; po): 0%
- inhibition in vivo at 640 µmol/kg ([2]; po, 0.64 mMole/kg): 23%

Structure (SMILES): CCN(CC)CCCC(C)Nc1snc2ccc(Cl)cc12 (stereo not drawn) [Example 10]
- side effects (footnote e) ([2]; oral, 0.32 mMole/kg): skeletal muscle relaxation, hypothermia and ptosis
- side effects (footnote e) ([2]; oral, 0.64 mMole/kg): skeletal muscle relaxation, hypothermia and ptosis
- inhibition in vivo at 80 µmol/kg ([2]; po): 0%
- inhibition in vivo at 320 µmol/kg ([2]; po, 0.32 mMole/kg): 62%
- inhibition in vivo at 324 µmol/kg ([2]; po): 15%
- inhibition in vivo at 640 µmol/kg ([2]; po, 0.64 mMole/kg): 50%

Structure (SMILES): CCN(CCO)CCCC(C)Nc1snc2cc(Cl)ccc12 (stereo not drawn) [Example 11, 6-chloro-3-<{4-[N-ethyl-N-(2-hydroxyethyl)amino]-1-methylbutyl}amino>-2,1-benzisothiazole 1,5-naphthalenedisulfonate]
- inhibition in vivo at 80 µmol/kg ([2]; po): 18%
- inhibition in vivo at 324 µmol/kg ([2]; po): 38%
- inhibition in vivo at 240 µmol/kg ([3]; po, 0.24 mMole/kg): 54%
- inhibition in vivo at 320 µmol/kg ([3]; po, 0.32 mMole/kg): 67%
- inhibition in vivo at 324 µmol/kg ([3]; po, 0.324 mMole/kg): 36%
- inhibition in vivo at 400 µmol/kg ([3]; po, 0.40 mMole/kg): 71%

Structure (SMILES): CCN(CC)CC(O)CNc1snc2cc(Cl)ccc12 (stereo not drawn) [Example 12, 6-chloro-3-{[3-(diethylamino)-2-hydroxypropyl]amino}-2,1-benzisothiazole]
- inhibition in vivo at 80 µmol/kg ([2]; po): 14%
- inhibition in vivo at 324 µmol/kg ([2]; po): 35%
- inhibition in vivo at 324 µmol/kg ([3]; po, 0.324 mMole/kg): 16%

Structure (SMILES): Clc1ccc2c(NCCN3CCN(c4ccccc4)CC3)snc2c1 [Example 13, 6-chloro-3-{[2-(4-phenyl-1-piperazinyl)ethyl]amino}-2,1-benzisothiazole]
- inhibition in vivo at 64 µmol/kg ([2]; po, 0.064 mMole/kg): 35%
- inhibition in vivo at 80 µmol/kg ([2]; po): 11%
- inhibition in vivo at 324 µmol/kg ([2]; po): 16%

Structure (SMILES): CCN(CC)Cc1cc(Nc2snc3ccc(Cl)cc23)ccc1O [Example 14, 5-chloro-3-{[3-(diethylamino)methyl-4-hydroxyphenyl]amino}-2,1-benzisothiazole]
- inhibition in vivo at 80 µmol/kg ([2]; po): 22%
- inhibition in vivo at 324 µmol/kg ([2]; po): 72%
- inhibition in vivo at 80 µmol/kg ([3]; po, 0.08 mMole/kg): 0%

Structure (SMILES): CCN(CC)Cc1cc(Nc2snc3cc(Cl)ccc23)ccc1O [Example 15, 6-chloro-3-{[3-(diethylamino)methyl-4-hydroxyphenyl]amino}-2,1-benzisothiazole]
- inhibition in vivo at 320 µmol/kg ([2]; po, 0.32 mMole/kg): 30%
- inhibition in vivo at 640 µmol/kg ([2]; po, 0.64 mMole/kg): 32%

Structure (SMILES): CCN(CC)Cc1cc(Nc2snc3ccccc23)ccc1O [Example 16, 3-{[3-(diethylamino)methyl-4-hydroxyphenyl]amino}-2,1-benzisothiazole]
- inhibition in vivo at 80 µmol/kg ([2]; po): 2%
- inhibition in vivo at 324 µmol/kg ([2]; po): 55%
- inhibition in vivo at 324 µmol/kg ([3]; po, 0.324 mMole/kg): 18%
